The source made the active and inactive calls. How the calls were made is not given here.
System: CCRIS mutagenicity, Ames/micronucleus/aberration tests
Test: CCRIS mutagenicity studies
[1] = Test System: AMES SALMONELLA TYPHIMURIUM, Strain/Indicator: TA100, Metabolic Activation: NONE, Method: PREINCUBATION
[2] = Test System: AMES SALMONELLA TYPHIMURIUM, Strain/Indicator: TA1535, Metabolic Activation: NONE, Method: PREINCUBATION
[3] = Test System: AMES SALMONELLA TYPHIMURIUM, Strain/Indicator: TA98, Metabolic Activation: NONE, Method: PREINCUBATION
[4] = Test System: AMES SALMONELLA TYPHIMURIUM, Strain/Indicator: TA1537, Metabolic Activation: NONE, Method: PREINCUBATION
[5] = Test System: AMES SALMONELLA TYPHIMURIUM, Strain/Indicator: TA98, Metabolic Activation: RAT, LIVER, S-9, AROCLOR 1254, Method: STANDARD PLATE

CCNc1nc(Cl)nc(NC(C)(C)C#N)n1
mutagenic call (End Point: In vitro chromosomal aberrations, Test System: Human lymphocytes, Metabolic Activation: None): inactive; negative for aberrations but cell cycle delay at 250 and 350 ug/ml doses
mutagenic call (End Point: In vitro chromosomal aberrations, Test System: Human lymphocytes, Metabolic Activation: Rat, liver, S-9, Aroclor 1254): inactive; negative
mutagenic call (Test System: Ames Salmonella typhimurium, Strain/Indicator: TA97a, Metabolic Activation: None, Method: Plate incorporation): inactive; negative, cytotoxicity at highest dose.
mutagenic call (Test System: Ames Salmonella typhimurium, Strain/Indicator: TA97a, Metabolic Activation: Rat, liver, S-9, Aroclor 1254, Method: Plate incorporation): inactive; negative, cytotoxicity at highest dose.
mutagenic call (Test System: Ames Salmonella typhimurium, Strain/Indicator: TA98, Metabolic Activation: None, Method: Plate incorporation): inactive; negative, cytotoxicity at highest dose.
mutagenic call (Test System: Ames Salmonella typhimurium, Strain/Indicator: TA98, Metabolic Activation: Rat, liver, S-9, Aroclor 1254, Method: Plate incorporation): inactive; negative, cytotoxicity at highest dose.
mutagenic call (Test System: Ames Salmonella typhimurium, Strain/Indicator: TA100, Metabolic Activation: None, Method: Plate incorporation): inactive; negative, cytotoxicity at highest dose.
mutagenic call (Test System: Ames Salmonella typhimurium, Strain/Indicator: TA100, Metabolic Activation: Rat, liver, S-9, Aroclor 1254, Method: Plate incorporation): inactive; negative, cytotoxicity at highest dose.
mutagenic call (Test System: Ames Salmonella typhimurium, Strain/Indicator: TA1535, Metabolic Activation: None, Method: Plate incorporation): inactive; negative, cytotoxicity at highest dose.
mutagenic call (Test System: Ames Salmonella typhimurium, Strain/Indicator: TA1535, Metabolic Activation: Rat, liver, S-9, Aroclor 1254, Method: Plate incorporation): inactive; negative, cytotoxicity at highest dose.
mutagenic call (Test System: UDS HUMAN PERIPHERAL BLOOD LYMPHOCYTES, Strain/Indicator: THY INCORP, Metabolic Activation: NONE, Method: LIQUID SCINTILLATION): inactive; negative
mutagenic call (Test System: UDS HUMAN PERIPHERAL BLOOD LYMPHOCYTES, Strain/Indicator: THY INCORP, Metabolic Activation: RAT, LIVER, S-9, PHENOBARBITAL AND BETA-NAPHTHOFLAVONE, Method: LIQUID SCINTILLATION): inactive; negative
mutagenic call (Test System: UDS rat primary hepatocytes, Strain/Indicator: Thymidine incorporation, Metabolic Activation: None, Method: Autoradiography): active; positive at >/= 1 um

CC(C)(c1ccc(OCC2CO2)cc1)c1ccc(OCC2CO2)cc1 (stereo not drawn)
mutagenic call (Test System: AMES SALMONELLA TYPHIMURIUM, Strain/Indicator: TA100, Metabolic Activation: HAMSTER, LIVER, S-9, AROCLOR 1254 (10%), Method: PREINCUBATION): active; positive
mutagenic call [1]: active; positive
mutagenic call (Test System: AMES SALMONELLA TYPHIMURIUM, Strain/Indicator: TA100, Metabolic Activation: NONE, Method: STANDARD PLATE): active; positive
mutagenic call (Test System: AMES SALMONELLA TYPHIMURIUM, Strain/Indicator: TA100, Metabolic Activation: RAT LIVER S-9, PHENOBARBITAL/METHYLCHOLANTHRENE (2 OR 10%), Method: STANDARD PLATE): active; positive
mutagenic call (Test System: AMES SALMONELLA TYPHIMURIUM, Strain/Indicator: TA100, Metabolic Activation: RAT LIVER S-9, PHENOBARBITAL/METHYLCHOLANTHRENE (4%), Method: STANDARD PLATE): active; positive
mutagenic call (Test System: AMES SALMONELLA TYPHIMURIUM, Strain/Indicator: TA100, Metabolic Activation: RAT, LIVER, S-9, AROCLOR 1254 (10%), Method: PREINCUBATION): active; positive
mutagenic call (Test System: AMES SALMONELLA TYPHIMURIUM, Strain/Indicator: TA1535, Metabolic Activation: HAMSTER, LIVER, S-9, AROCLOR 1254 (10%), Method: PREINCUBATION): active; positive
mutagenic call [2]: active; positive
mutagenic call (Test System: AMES SALMONELLA TYPHIMURIUM, Strain/Indicator: TA1535, Metabolic Activation: NONE, Method: STANDARD PLATE): inactive; negative
mutagenic call (Test System: AMES SALMONELLA TYPHIMURIUM, Strain/Indicator: TA1535, Metabolic Activation: RAT LIVER S-9, PHENOBARBITAL/METHYLCHOLANTHRENE (4, 10 OR 20%), Method: STANDARD PLATE): active; positive
mutagenic call (Test System: AMES SALMONELLA TYPHIMURIUM, Strain/Indicator: TA1535, Metabolic Activation: RAT, LIVER, S-9, AROCLOR 1254 (10%), Method: PREINCUBATION): active; positive
mutagenic call (Test System: E. coli, Strain/Indicator: IC3327, Metabolic Activation: None, Method: Standard Plate): active; positive
mutagenic call (Test System: E. coli, Strain/Indicator: IC3327, Metabolic Activation: Rat, Liver, S-9, Phenobarbital-methylcholanthrene mix (4%) + 4 mM NADP, Method: Standard Plate): active; positive
mutagenic call (Test System: E. coli, Strain/Indicator: IC3327, Metabolic Activation: Rat, Liver, S-9, Phenobarbital-methylcholanthrene mix (4%), Method: Standard Plate): active; positive
mutagenic call (Test System: E. coli, Strain/Indicator: WP2 UVRA, Metabolic Activation: None, Method: Standard Plate): active; positive
mutagenic call (Test System: E. coli, Strain/Indicator: WP2 UVRA, Metabolic Activation: Rat, Liver, S-9, Phenobarbital-methylcholanthrene mix (4%) + 4 mM NADP, Method: Standard Plate): inactive; negative (authors report as positive based on slope but revertants <2x backgroun
mutagenic call (Test System: E. coli, Strain/Indicator: WP2 UVRA, Metabolic Activation: Rat, Liver, S-9, Phenobarbital-methylcholanthrene mix (4%), Method: Standard Plate): active; positive

CCCCOCCOC(=O)COc1ccc(Cl)cc1Cl
mutagenic call [3]: inactive; negative
mutagenic call (Test System: AMES SALMONELLA TYPHIMURIUM, Strain/Indicator: TA98, Metabolic Activation: RAT LIVER S-9, AROCLOR 1254, 10%, Method: PREINCUBATION): inactive; negative
mutagenic call [1]: inactive; negative
mutagenic call (Test System: AMES SALMONELLA TYPHIMURIUM, Strain/Indicator: TA100, Metabolic Activation: RAT LIVER S-9, AROCLOR 1254, 10%, Method: PREINCUBATION): inactive; negative
mutagenic call [2]: inactive; negative
mutagenic call (Test System: AMES SALMONELLA TYPHIMURIUM, Strain/Indicator: TA1535, Metabolic Activation: RAT LIVER S-9, AROCLOR 1254, 10%, Method: PREINCUBATION): inactive; negative
mutagenic call [4]: inactive; negative
mutagenic call (Test System: AMES SALMONELLA TYPHIMURIUM, Strain/Indicator: TA1537, Metabolic Activation: RAT LIVER S-9, AROCLOR 1254, 10%, Method: PREINCUBATION): inactive; negative
mutagenic call (Test System: UDS RAT HEPATOCYTES, Strain/Indicator: THYMIDINE INCORPORATION, Metabolic Activation: NONE, Method: AUTORADIOGRAPHY): inactive; negative

CC(=O)Nc1ccc2ccc3c(O)ccc4ccc1c2c43
mutagenic call (Test System: AMES SALMONELLA TYPHIMURIUM, Strain/Indicator: TA98(1,8-DNP6), Metabolic Activation: NONE, Method: STANDARD PLATE): inactive; negative
mutagenic call (Test System: AMES SALMONELLA TYPHIMURIUM, Strain/Indicator: TA98(1,8-DNP6), Metabolic Activation: RAT, LIVER, S-9, AROCLOR 1254, Method: STANDARD PLATE): inactive; negative
mutagenic call [5]: active; positive
mutagenic call (Test System: AMES SALMONELLA TYPHIMURIUM, Strain/Indicator: YG1024, Metabolic Activation: NONE, Method: STANDARD PLATE): inactive; negative
mutagenic call (Test System: AMES SALMONELLA TYPHIMURIUM, Strain/Indicator: YG1024, Metabolic Activation: RAT, LIVER, S-9, AROCLOR 1254, Method: STANDARD PLATE): active; positive

C1COCCN1
mutagenic call [3]: inactive; negative
mutagenic call (Test System: AMES SALMONELLA TYPHIMURIUM, Strain/Indicator: TA98, Metabolic Activation: RAT LIVER S-9, PHENOBARBITAL AND BETA-NAPHTHOFLAVONE, Method: PREINCUBATION): inactive; negative
mutagenic call (Test System: AMES SALMONELLA TYPHIMURIUM, Strain/Indicator: TA98, Metabolic Activation: RAT, LIVER, S-9, PCB, Method: PREINCUBATION): inactive; negative
mutagenic call [1]: inactive; negative
mutagenic call (Test System: AMES SALMONELLA TYPHIMURIUM, Strain/Indicator: TA100, Metabolic Activation: RAT LIVER S-9, PHENOBARBITAL AND BETA-NAPHTHOFLAVONE, Method: PREINCUBATION): inactive; negative
mutagenic call (Test System: AMES SALMONELLA TYPHIMURIUM, Strain/Indicator: TA100, Metabolic Activation: RAT, LIVER, S-9, PCB, Method: PREINCUBATION): inactive; negative
mutagenic call [2]: inactive; negative
mutagenic call (Test System: AMES SALMONELLA TYPHIMURIUM, Strain/Indicator: TA1535, Metabolic Activation: RAT LIVER S-9, PHENOBARBITAL AND BETA-NAPHTHOFLAVONE, Method: PREINCUBATION): inactive; negative
mutagenic call [4]: inactive; negative
mutagenic call (Test System: AMES SALMONELLA TYPHIMURIUM, Strain/Indicator: TA1537, Metabolic Activation: RAT LIVER S-9, PHENOBARBITAL AND BETA-NAPHTHOFLAVONE, Method: PREINCUBATION): inactive; negative
mutagenic call (Test System: E.COLI, Strain/Indicator: WP2UVRA, Metabolic Activation: NONE, Method: PREINCUBATION): inactive; negative
mutagenic call (Test System: E.COLI, Strain/Indicator: WP2UVRA, Metabolic Activation: RAT LIVER S-9, PHENOBARBITAL AND BETA-NAPHTHOFLAVONE, Method: PREINCUBATION): inactive; negative

CC(=O)Nc1ccc2c3c(cccc13)-c1cc(O)ccc1-2
mutagenic call (Test System: AMES SALMONELLA TYPHIMURIUM, Strain/Indicator: TA98, Metabolic Activation: NONE, Method: STANDARD PLATE): active; positive
mutagenic call [5]: active; positive

— PubChem BioAssay AID1259407 (Chemical Carcinogenesis Research Information System (CCRIS), 2018)
